This assay concerns SARS-CoV-2 (D614G) pseudovirus. The note with it: 24 h.

The results in this text go back to patent EP4722231A1, “BIOSYNTHESIS METHOD FOR BROAD-SPECTRUM ANTIVIRAL POLYPEPTIDE” (Shanxi Jinbo Bio-Pharmaceutical Co., Ltd., priority 2023, dated 2025).

Molecules are shown by their SMILES.

The IC50 is the concentration needed to halve the response being measured. As for `CC[C@H](C)[C@H](NC(=O)[C@H](C)NC(=O)[C@H](CCC(=O)O)NC(=O)[C@H](CCC(=O)O)NC(=O)[C@H](CC(C)C)NC(=O)[C@H](CCCCN)NC(=O)[C@H](CCCCN)NC(=O)[C@H](CCSC)NC(=O)[C@H](CCC(=O)O)NC(=O)[C@H](Cc1ccc(O)cc1)NC(=O)[C@H](CCC(=O)O)NC(=O)[C@H](CC(C)C)NC(=O)[C@H](CC(=O)O)NC(=O)[C@H](CC(C)C)NC(=O)[C@H](Cc1ccccc1)NC(=O)[C@@H](NC(=O)[C@@H](NC(=O)[C@H](CC(N)=O)NC(=O)[C@@H](NC(=O)[C@H](CCC(N)=O)NC(=O)[C@H](CC(=O)O)NC(=O)[C@H](CC(C)C)NC(=O)[C@H](CO)NC(C)=O)[C@@H](C)CC)C(C)C)[C@@H](C)O)C(=O)N[C@@H](CCCCN)C(=O)N[C@@H](CCCCN)C(=O)N[C@@H](CC(C)C)C(=O)N[C@@H](CCC(=O)O)C(=O)N[C@@H](CCC(=O)O)C(=O)N[C@@H](CO)C(=O)N[C@@H](Cc1ccc(O)cc1)C(=O)N[C@H](C(=O)N[C@@H](CC(=O)O)C(=O)N[C@@H](CC(C)C)C(=O)N[C@@H](CCCCN)C(=O)N[C@@H](CCC(=O)O)C(=O)N[C@@H](CC(C)C)C(N)=O)[C@@H](C)CC` [EK1], it took 308 nM to reach half-maximal inhibition (IC50).
